Consider four compounds from US7550426B2, “Acetylated therapeutic procytotoxins” (GHC Research Development Corporation, priority 2005, dated 2009).

Test [1] concerns the target prostate specific membrane antigen (human) (UniProt Q04609).
Test [2] is described as follows: Mouse weight after 7 weeks of intraperitoneal injection in mouse model for prostate cancer. To be noted: nude mice with LNCaP tumor; following 7 weeks of intraperitoneal injection; compared to control animals. Format: in vivo. On the procedure: (§1) 20 nude mice are injected subcutaneously (right flank) with 0.5 ml of a 4 million cell/ml suspension (50% PBS 50% high concentration matrigel). Each mouse receives approximately 2 million cells. The mice are male, approximately 12 weeks of age and of the nude BalbC background.
(§2) 5 days following LNCaP tumor inoculation, mice are injected with an acetylated γ-glutamate-masked amoebapore, a non-acetylated γ-glutamate-masked amoebapore, and a control. Six control mice are injected with 200 μl of PBS and the remaining 14 mice are injected with 200 μl of a 1 mg/ml solution of either the acetylated or non-acetylated γ-glutamate-masked amoebapore peptide (i.e., 200 μg peptide per injection). Mice are injected intraperitoneally, twice per week. PSA levels are measured after three, five, and seven weeks of treatment. Lower PSA levels relative to control provide an objective indication that the procytotoxin is converted to its cytotoxic form and is able to lyse a target cell.
Additionally, mice are weighed following 7 weeks of intraperitoneal injection of a non-acetylated procytotoxin or an acetylated procytoxin in a mouse model for prostate cancer. […] Cachexia is a profound and marked state of constitutional disorder, representing general ill health. It is sometimes associated with an emaciated condition, such as cancerous cachexia seen in cases of a malignant tumor. […]

Another test relates to LNCaP cells. The test is described as follows: In vitro lysis of LNCaP cells measured by LDH release. Format: cell-based, human. Particulars: concentration 160 μM. Here is the method: Prior to tumor injection, in vitro studies are conducted to check the activity of the acetylated and non-acetylated procytotoxin, and to check the activity of the LNCaP cells for their ability to secrete PSA. Peptide activity is checked by a LDH Cytotoxicity Detection Kit (Roche).
Non-acetylated γ-glutamate-masked amoebapore (a modified cytotoxin comprising one or more γ-linked glutamate residues linked via a peptide bond to the epsilon amino group of at least one lysine, preferably the C-terminal-most lysine), and acetylated γ-glutamate-masked amoebapore are compared in vitro for their ability to lyse LNCaP cells, as measured by percent lactic acid dehydrogenase (LDH) release.
In general terms: Release of lactate dehydrogenase indicates damage to the cell membrane.

Another test has as its system LNCaP tumor. The test is described as follows: Plasma PSA levels in mouse model for human prostate cancer (LNCaP tumor), intraperitoneal treatment. To be noted: nude mice with LNCaP tumor; 200 μg peptide per injection, intraperitoneally, twice per week; PSA measured after three, five and seven weeks. The class given is in vivo. On the procedure:
LNCaP cells lot #3475262 (Catalog # CRL-1740) are received from ATCC, quickly thawed at 37° C. and placed in culture immediately. Cells are cultured in RPMI media (supplemented with 10% FBS, 50,000 units of Penicillin and 50,000 ug Streptomycin) and grown at 37° C. in the presence of 5% CO2. Cells are passed when approximately 80% confluent until there are enough cells to do the in vivo studies.
as §1, §2

The next test concerns nucleated cells. Particulars: high concentrations; cited from earlier work.

In test [1], “acetylated γ-glutamate-masked amoebapore (peptide)” showed a % LDH Release (% LDH Release) of 29.9.
Still for that read-out and setting: the same measure for “non-acetylated γ-glutamate-masked amoebapore (peptide)”: 38.5.
Take `CC(=O)NC(CCC(=O)NC(CCC(=O)NCCCCC(N)C(N)=O)C(=O)O)C(=O)O` (stereo not drawn) [Acetylated procytotoxin]: the weight loss entry in test [2] was “experienced the least weight loss”. The “% LDH Release” value in the test with LNCaP cells amounted to 29.94%. Moreover, the “plasma PSA levels compared to control” value in the test with LNCaP tumor was “lowered PSA levels to a greater extent”.
Consider “NH2-Gly-Phe-Ile-Ala-Thr-Leu-Cys-Thr-Lys-Val-Leu-Asp-Phe-Gly-Ile-Asp-Lys-Leu-Ile-Gln-Leu-Ile-Glu-Asp-Lys-CONH2 (H-GFIATLCTKVLDFGIDKLIQLIEDK-NH2; listed as Entamoeba histolytica) [Amoebapore Helix 3, parent cytolytic peptide from Entamoeba histolytica amoebapore, third helix]”, for which, in the test with nucleated cells, the “concentrations with cytolytic activity for nucleated cells” value was 10 to 100 µM.
